Common to all, as to type: in vivo
In data set [1] the test system is whiteflies (Bemisia argentifolii). The data set can be described thus: Test Example 16: foliar spray on cabbage, whiteflies. Particulars: 500 ppm dilution of flowable (Preparation example 7), 30 ml sprayed, after 6 days. The method, then: About 50 whiteflies (Bemisia argentifolii) were put on a cabagge leaf (in first-leaf stage) grown in a 90 ml plastic cup.
The formulation obtained in Preparation example 7 was diluted with water containing a spreading agent (Tokurino produced by Nihon Nohyaku Co.) to make the concentration of the Pyrone Compound to 500 ppm. Thirty milliliters (30 ml) of the dilution were sprayed to the cabbage (in first-leaf stage) and air-dried. The plastic pot was allowed to stand at 25±2° C. in a greenhouse. After 6 days, the mortality was 90% or more.

In data set [2] the test system is adult smokybrown cockroaches (Periplaneta fuliginosa). Kind of data set: Test Example 5: heating fumigant (ceramic plate) in 5.8 m^3 chamber, smokybrown cockroaches. The note with it: heating fumigant (Preparation example 24, 500 mg) at about 200° C. in 5.8 m^3 chamber. The method, then: On the bottom of a cubic chamber having 1.8 m of side (5.8 m^3), the heating fumigant (ceramic plate) obtained in Preparation example 24 with an electric heater was set in the center. Two plastic cups were put at two corners in the chamber, wherein each cup has ten (5 males and 5 females) adult German cockroaches (Blattella germanica) therein. Two hours after turning on an electric current, the ceramic plate was heated to about 200° C. (200±5° C.) and the active ingredient was vaporized. The heating temperature was estimated by measuring a surface temperature of the ceramic plate with radiation pyrometer (TR-0506C produced by Minolta Company) in advance. Then, the knocked-down cockroaches were counted and the knock-down percentage was calculated. Further, the cockroaches were transferred to a clean plastic cup and given foods and water. The mortality was observed after 7 days.
Furthermore, the same tests were performed except that six (3 males and 3 females) adult smokybrown cockroaches (Periplaneta fuliginosa) and six (3 males and 3 females) adult American cockroaches (Periplaneta americana) were used in place of ten German cockroaches.

The subject of data set [3] is eggs of peach fruit moth (Carposina niponensis). The data set can be described thus: Test Example 20: treated artificial food, peach fruit moth eggs. Particulars: 1 ml of 500 ppm dilution (Preparation example 2) in 6 g artificial food, after 10 days. The method, then:
The formulation obtained in Preparation example 2 was diluted with water to make the concentration of the Pyrone Compound to 500 ppm. One milliliter (1 ml) of the dilution was added to 6 g of artificial food (Insecta LF produced by Nihon Nosankogyo Co.) in plastic cup having 5.5 cm in diameter. About 50 eggs of peach fruit moth (Carposina niponensis) laid on nylon cloth were put into the plastic cup. After 10 days, the ovicidal effect was 90% or more.

Data set [4] concerns adult American house dust mites (Dermatophagoides farinae). The data set can be described thus: Test Example 10: treated drawing paper, American house dust mites. The note with it: drawing paper 800 mg/m^2, 25° C., 65% humidity, 24 hours. The method, then:
On a black drawing paper having 38 mm in diameter, 0.2 ml of an acetone solution of the Pyrone Compound was added dropwise and air-dried. The treated dosage was 800 mg/m^2. The drawing paper was set on an aluminum plate having 38 mm in diameter and adhesives were put on the edge to prevent for tested mites to escape. About 30 adult American house dust mites (Dermatophagoides farinae) were released on the drawing paper and kept at 25° C. and 65% of humidity for 24 hours. After that, the mortality was observed. The result was 100%.

In data set [5] the test system is centipede (Scolopendra subspinipes mutilans). Kind of data set: Test Example 22: oil-based aerosol spray, centipede. Particulars: about 1000 mg of 1.0% oil-based aerosol sprayed, after 3 days. The method, then:
According to Preparation examples 10-14, 1.0% oil-based aerosol of the Pyrone Compound was obtained. A container (12.5 cm in diameter, 17.5 cm in height, bottom covered 16-mesh iron net and inside wall painted butter for preventing tested pill bugs to escape) having a centipede (Scolopendra subspinipes mutilans) therein was set on the bottom center of a glass cylinder having 20 cm in diameter and 60 cm in height. About 1000 mg of the above oil-based aerosol were sprayed to the centipede from the upper part of the cylinder. After 30 seconds, the centipede was taken out and put into a clean plastic cup and given food and water. It was observed that the centipede was dead after 3 days.

For data set [6], the system named is adult cat fleas (Ctenocephalides felis). Kind of data set: Test Example 7: treated filter paper contact, adult cat fleas. Particulars: three repetitions. The method, then:
A designated amount of the Pyrone Compound was dissolved in acetone to give a 0.2 ml solution, which was uniformly treated on a filter paper having 3.8 cm in diameter, and air-dried for one hour. The filter paper was filled in a lid of a 200 ml glass bottle. Twenty adult cat fleas (Ctenocephalides felis) were released in the glass bottle, which was followed by covering with the lid. The glass bottle was upset for making the fleas contact with the filter paper, and kept at room temperature (25±3° C.) for one day. After that, the mortality was observed.

For data set [7], the system named is adult Porcellio scaber. The data set can be described thus: Test Example 13: oil-based aerosol spray, Porcellio scaber. The note with it: about 450 mg of 1.0% oil-based aerosol sprayed, after 3 days. The method, then: According to Preparation examples 10-14, 1.0% oil-based aerosol of the Pyrone Compound was obtained. A container (8.75 cm in diameter, 7.5 cm in height, bottom covered 16-mesh iron net and inside wall painted butter for preventing tested pill bugs to escape) having 5 adult pill bugs (Armadillidium vulgare) therein was set on the bottom center of a glass cylinder having 20 cm in diameter and 60 cm in height. About 450 mg of the above oil-based aerosol were sprayed to the pill bugs from the upper part of the cylinder. After 30 seconds, the pill bugs were taken out and put into a clean plastic cup having soil and dead leaves therein. The pill bugs were given food and water and observed after 3 days. The tests were repeated twice. The mortality was 100%. Reference compound was also tested and the mortality was 40%.
The same procedure was performed as in Test example 12 except that 5 adult Porcellio scaber were used in place of Armadillidium vulgare. As a result, the mortality of the Pyrone Compound was 100%.

In data set [8] the test system is 3-instar larvae of diamondback moth (Plutella xylostella). Kind of data set: Test Example 18: treated cabbage leaf disc, feeding damage by diamondback moth. The note with it: 50 μg on cabbage leaf disc of 1 cm diameter, after 24 hours. The method, then:
A methanol solution (50 μg/20 μl) of the Pyrone Compound was prepared. The solution (20 μl) was painted on a cut leaf disc of cabbage (1 cm in diameter). After vaporizing methanol, the leaf disc was put on a filter paper, which was wet with 1 ml of water, in Petri dish making the painted surface upside. Two 4-instar larvae of tobacco cutworm (Spodoptera litura) were put in the Petri dish. After 24 hours, the damage of the leaf disc was observed and compared with the test result of the non-treated disc. The tests were repeated 5 times.
The same procedure was performed as in Test example 17 except that five 3-instar larvae of diamondback moth (Plutella xylostella) was used in place of tobacco cutworm (Spodoptera litura).

The values below come from US20010049389A1, “Arthropod-controlling composition” (priority 2000, published 2001).

Bounds are passed on as bounds.

Take `Cc1cc(O)c(C(=O)CC(C)C)c(=O)o1` [The Pyrone Compound]: the mortality (commonly the share of the test organisms that died) in data set [1] was not below 90%; in data set [4], 100%; in data set [7], 100%. In addition, the “Mortality (%)” value in data set [2] (after 7 days) amounted to 83%; in data set [6] (dosage 200 mg/m^2, one day) it was 98%; in data set [6] (dosage 800 mg/m^2, one day) it was 100%. Further, in data set [2] (two hours), the “Knock-down percentage (%)” value is given as 100%. In data set [3], this compound came in with an ovicidal effect not below 90%. In data set [5], the “state of the centipede after spraying” value is “dead”. The “damage of the leaf disc compared with the non-treated disc” value in data set [8] was “clearly smaller”.
